We go through 16 compounds from patent publication US11918592B2, “Inhibitors of cyclin dependent kinase 7 (CDK7)” (Syros Pharmaceuticals, Inc., priority 2018, dated 2024).

In one assay the test system is HCC70 cells. Briefly: Inhibition of cell proliferation, CyQUANT Direct, HCC70. The format is cell-based, human. The settings on record: HCC70 triple negative breast cancer cells, 72-hour, read-out: HCC 70 proliferation calculated IC50. As to the method: (§1) HCC70 and MB453 cells are cell lines derived from human triple negative breast cancer. COV318 and COV504 cells are cell lines derived from human ovarian cancer. Representative compounds of the invention were tested at different concentrations (from 4 μM to 126.4 pM; 0.5 log serial dilutions) for their ability to inhibit the proliferation of each of these cell lines. Known CDK inhibitors dinaciclib or N-((1S,3R)-3-((5-chloro-4-(1H-indol-3-yl) pyrimidin-2-yl)amino)cyclohexyl)-5-((E)-4-(dimethylamino)but-2-enamido)picolinamide and triptolide were used as positive controls. Cells were seeded at approximately 2,000 cells/well and grown in ATCC-formulated RPMI-1640 Medium (ATCC 30-2001)+10% FBS. The cells were cultured at 37° C. in a humidified chamber in the presence of 5% CO2. Proliferation assays were conducted over a 72-hour time period. CyQUANT® Direct Cell Proliferation Assay (Life Technologies, Chicago, IL USA) was used to assess the anti-proliferative effects of the compounds following manufacturer's directions and utilizing the reagents supplied with the CyQUANT® Direct Cell kit.

In another assay the test system is COV318 cells. Briefly: Inhibition of cell proliferation, CyQUANT Direct, COV318. It is filed as cell-based. The settings on record: Homo sapiens; COV318 ovarian cancer cells, 72-hour; read-out: COV 318 proliferation calculated IC50. As to the method: as §1
In another assay the test system is COV504 cells. The assay is described as follows: Inhibition of cell proliferation, CyQUANT Direct, COV504. It is filed as cell-based. The settings on record: Homo sapiens; COV504 ovarian cancer cells, 72-hour; read-out: COV 504 proliferation calculated IC50. The procedure:
as §1

The subject of a further assay is MB453 cells. Briefly: Inhibition of cell proliferation, CyQUANT Direct, MB453. The format is cell-based, human. Particulars: MB453 triple negative breast cancer cells, 72-hour, read-out: MB 453 proliferation calculated IC50. As to the method:
as §1

The next assay has as its target CDK2/Cyclin E1 complex (Homo sapiens, UniProt P24941). The assay is described as follows: CDK2 kinase inhibition assay (Caliper/LabChip EZ Reader).
The target of assay [1] is CDK7/Cyclin H/MAT1 complex (Homo sapiens, UniProt P50613). Briefly: CDK7 kinase inhibition assay (Caliper/LabChip EZ Reader).
Sequence of CDK7/Cyclin H/MAT1 complex (P50613 whole entry): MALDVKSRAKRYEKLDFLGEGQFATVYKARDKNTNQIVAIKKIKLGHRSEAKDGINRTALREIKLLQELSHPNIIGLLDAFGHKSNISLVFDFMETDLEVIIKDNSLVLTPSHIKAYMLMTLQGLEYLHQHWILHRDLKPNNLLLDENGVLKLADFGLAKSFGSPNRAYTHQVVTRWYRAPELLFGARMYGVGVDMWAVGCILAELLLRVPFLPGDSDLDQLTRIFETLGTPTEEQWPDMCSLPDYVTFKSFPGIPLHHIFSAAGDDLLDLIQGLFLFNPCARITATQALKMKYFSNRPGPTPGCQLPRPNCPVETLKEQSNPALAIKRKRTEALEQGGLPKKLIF
Sequence of CDK7/Cyclin H/MAT1 complex (P51946 whole entry partner): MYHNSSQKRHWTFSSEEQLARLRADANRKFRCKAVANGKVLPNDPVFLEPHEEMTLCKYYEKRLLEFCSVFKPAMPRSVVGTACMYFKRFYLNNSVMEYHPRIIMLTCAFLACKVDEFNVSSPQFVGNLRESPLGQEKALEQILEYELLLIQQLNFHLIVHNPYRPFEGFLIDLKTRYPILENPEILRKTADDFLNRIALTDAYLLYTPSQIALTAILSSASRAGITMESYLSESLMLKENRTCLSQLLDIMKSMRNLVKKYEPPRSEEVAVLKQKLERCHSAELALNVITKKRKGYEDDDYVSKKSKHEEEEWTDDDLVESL
Sequence of CDK7/Cyclin H/MAT1 complex (P51948 whole entry partner): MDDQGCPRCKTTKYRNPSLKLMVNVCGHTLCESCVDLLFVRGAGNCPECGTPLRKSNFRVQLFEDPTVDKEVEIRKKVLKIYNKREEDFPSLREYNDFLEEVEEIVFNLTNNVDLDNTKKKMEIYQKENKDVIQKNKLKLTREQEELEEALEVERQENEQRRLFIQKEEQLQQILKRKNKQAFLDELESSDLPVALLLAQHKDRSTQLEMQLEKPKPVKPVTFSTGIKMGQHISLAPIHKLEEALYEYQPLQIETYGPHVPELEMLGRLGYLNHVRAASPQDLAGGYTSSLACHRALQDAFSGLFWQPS
Description: Compounds of the invention were assayed for inhibition of CDK7, CDK9, CDK12, and CDK2 activity at Biortus Biosciences (Jiangyin, Jiangsu Province, P.R. of China) using kinase assays for each CDK developed with a Caliper/LabChip EZ Reader (Perkin Elmer, Waltham, MA).
Furthermore, the CDK9 inhibition assay used CDK9/Cyclin T1 complex (8 nM) and “5-FAM-CDK9tide” peptide substrate (2 μM, synthesized fluorophore-labeled peptide with the following sequence: 5-FAM-GSRTPMY-NH2 (SEQ ID NO:2) where 5-FAM is defined above and NH2 signifies a C-terminal amide) with 10 mM MgCl2 in the buffer composition listed above. The CDK12 inhibition assay used CDK12 (aa686-1082)/Cyclin K complex (50 nM) and “5-FAM-CDK9tide” (2 μM) as defined above, with 2 mM MgCl2 in the buffer composition above. Additionally, the CDK2 inhibition assay used CDK2/Cyclin E1 complex (0.5 nM) and “5-FAM-CDK7tide” (2 μM) as defined above, with 2 mM MgCl2 in the buffer composition listed above.
The incubation period at 27° C. for each CDK inhibition assay was chosen such that the fraction of phosphorylated peptide product produced in each assay, relative to the total peptide concentration, was approximately 20% (±5%) for the uninhibited kinase (35 min. for CDK7, 35 min. for CDK2, 3 hr. for CDK12, 15 min. for CDK9).
A further assay concerns the target CDK9/Cyclin T1 complex (Homo sapiens, UniProt P50750). Briefly: CDK9 kinase inhibition assay (Caliper/LabChip EZ Reader).
The target in assay [2] is CDK12 (aa686-1082)/Cyclin K complex (Homo sapiens, UniProt Q9NYV4). Briefly: CDK12 kinase inhibition assay (Caliper/LabChip EZ Reader).
Sequence of CDK12 (aa686-1082)/Cyclin K complex (Q9NYV4 686-1082): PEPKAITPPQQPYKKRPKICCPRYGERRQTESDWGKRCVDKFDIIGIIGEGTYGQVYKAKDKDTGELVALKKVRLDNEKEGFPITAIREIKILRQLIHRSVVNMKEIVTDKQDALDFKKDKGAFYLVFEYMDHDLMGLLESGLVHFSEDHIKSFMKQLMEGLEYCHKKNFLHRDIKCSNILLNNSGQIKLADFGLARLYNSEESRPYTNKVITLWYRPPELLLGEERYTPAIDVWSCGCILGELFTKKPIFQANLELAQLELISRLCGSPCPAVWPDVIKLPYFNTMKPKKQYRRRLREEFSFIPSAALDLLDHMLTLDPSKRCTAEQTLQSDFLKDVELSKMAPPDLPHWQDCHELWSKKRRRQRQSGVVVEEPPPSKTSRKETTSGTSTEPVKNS
Sequence of CDK12 (aa686-1082)/Cyclin K complex (O75909 whole entry partner, the tested form may be a part): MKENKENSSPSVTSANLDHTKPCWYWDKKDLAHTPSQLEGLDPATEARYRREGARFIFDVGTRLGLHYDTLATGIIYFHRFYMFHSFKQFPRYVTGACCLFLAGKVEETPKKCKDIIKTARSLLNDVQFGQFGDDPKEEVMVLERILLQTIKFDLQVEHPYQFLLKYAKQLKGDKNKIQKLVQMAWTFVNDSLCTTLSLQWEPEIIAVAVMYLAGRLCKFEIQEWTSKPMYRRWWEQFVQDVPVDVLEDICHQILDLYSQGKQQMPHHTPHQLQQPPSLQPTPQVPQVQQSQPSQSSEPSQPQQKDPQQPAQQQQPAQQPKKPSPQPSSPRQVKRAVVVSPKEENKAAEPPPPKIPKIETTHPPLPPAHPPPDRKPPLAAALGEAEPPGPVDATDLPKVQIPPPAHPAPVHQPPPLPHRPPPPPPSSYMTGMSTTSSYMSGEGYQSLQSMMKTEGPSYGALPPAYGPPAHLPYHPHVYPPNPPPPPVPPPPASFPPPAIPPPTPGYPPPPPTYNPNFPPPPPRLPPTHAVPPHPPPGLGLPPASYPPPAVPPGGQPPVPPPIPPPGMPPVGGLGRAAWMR

Read-outs that look alike come from different tables or passages of the source.

Sequence of CDK9/Cyclin T1 complex (P50750 whole entry, the tested form may be a part): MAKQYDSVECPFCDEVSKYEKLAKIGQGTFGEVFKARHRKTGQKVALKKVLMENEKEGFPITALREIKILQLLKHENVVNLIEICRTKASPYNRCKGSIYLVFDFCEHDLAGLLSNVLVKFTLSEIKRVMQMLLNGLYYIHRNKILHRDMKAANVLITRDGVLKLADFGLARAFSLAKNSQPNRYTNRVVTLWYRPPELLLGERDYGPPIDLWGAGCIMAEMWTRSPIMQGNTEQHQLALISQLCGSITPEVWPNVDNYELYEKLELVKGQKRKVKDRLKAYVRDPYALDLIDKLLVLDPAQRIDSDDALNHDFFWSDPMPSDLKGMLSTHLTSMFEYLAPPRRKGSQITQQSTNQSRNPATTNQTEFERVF
Sequence of CDK9/Cyclin T1 complex (O60563 whole entry partner, the tested form may be a part): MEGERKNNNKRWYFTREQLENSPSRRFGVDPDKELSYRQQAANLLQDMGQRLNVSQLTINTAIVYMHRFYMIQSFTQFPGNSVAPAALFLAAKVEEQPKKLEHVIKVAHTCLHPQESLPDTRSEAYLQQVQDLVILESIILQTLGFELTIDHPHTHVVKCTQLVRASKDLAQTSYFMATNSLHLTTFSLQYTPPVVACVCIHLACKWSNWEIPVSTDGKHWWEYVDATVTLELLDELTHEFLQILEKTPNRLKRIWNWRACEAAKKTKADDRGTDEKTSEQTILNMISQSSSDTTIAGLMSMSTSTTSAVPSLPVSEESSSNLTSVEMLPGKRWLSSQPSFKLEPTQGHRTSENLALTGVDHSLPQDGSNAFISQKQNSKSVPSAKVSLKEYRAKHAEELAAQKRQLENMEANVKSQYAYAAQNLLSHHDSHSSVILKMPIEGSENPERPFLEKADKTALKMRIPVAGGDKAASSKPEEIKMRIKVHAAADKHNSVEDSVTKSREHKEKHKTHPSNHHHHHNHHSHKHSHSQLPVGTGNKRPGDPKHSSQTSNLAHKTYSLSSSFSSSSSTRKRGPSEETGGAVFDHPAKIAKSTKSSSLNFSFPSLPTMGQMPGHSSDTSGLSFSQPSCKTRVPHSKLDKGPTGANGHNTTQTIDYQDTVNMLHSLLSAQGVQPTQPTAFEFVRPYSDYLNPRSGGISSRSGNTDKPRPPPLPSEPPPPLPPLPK

Regarding `N#Cc1ccc2c(-c3nc(N[C@@H]4C[C@@H]5CCC4N5)ncc3C(F)(F)F)c[nH]c2c1` (racemic) [Compound 106, 3-(2-[[(+/−)-exo-7-azabicyclo[2.2.1]heptan-2-yl]amino]-5-(trifluoromethyl)pyrimidin-4-yl)-1H-indole-6-carbonitrile], the IC50 in the assay with HCC70 cells (Homo sapiens) was 100 to 500 nM; in the assay with COV318 cells, 100 to 500 nM; with COV504 cells, 100 to 500 nM; in the assay with MB453 cells (Homo sapiens), 100 to 500 nM; on CDK2/Cyclin E1 complex, more than 500 nM; in assay [1], less than 30 nM. The IC50 (at CDK9/Cyclin T1 complex; in assay [2]) was more than 500 nM in each case.

Turning to `N#Cc1ccc2c(-c3nc(N[C@@H]4CNC[C@@H]4O)ncc3C(F)(F)F)c[nH]c2c1` (relative stereo) [Compound 107], the IC50 in the assay with HCC70 cells (Homo sapiens) was more than 2000 nM; in the assay with COV318 cells, more than 2000 nM; in the assay on COV504 cells, more than 2000 nM; with MB453 cells (Homo sapiens), more than 2000 nM; on CDK2/Cyclin E1 complex, more than 500 nM; in assay [1] it was 100 to 500 nM. The IC50 (against CDK9/Cyclin T1 complex; in assay [2]) was more than 500 nM throughout.

With `N#Cc1ccc2c(-c3nc(N[C@@H]4CNC[C@H]4F)ncc3C(F)(F)F)c[nH]c2c1` (relative stereo) [Compound 110], the IC50 in the assay on HCC70 cells (Homo sapiens) was 500 to 2000 nM; in the assay with COV318 cells, more than 2000 nM; with COV504 cells it was 500 to 2000 nM; with MB453 cells (Homo sapiens) it was more than 2000 nM; against CDK2/Cyclin E1 complex it was more than 500 nM; in assay [1] it was 100 to 500 nM. Also, the IC50 (against CDK9/Cyclin T1 complex; in assay [2]) was more than 500 nM in each case.

For `CCO[C@@H]1CNC[C@H]1Nc1ncc(C(F)(F)F)c(-c2c[nH]c3cc(C#N)ccc23)n1` (relative stereo) [Compound 111], the IC50 with HCC70 cells (Homo sapiens) is more than 2000 nM; with COV318 cells, more than 2000 nM; in the assay on COV504 cells, more than 2000 nM; with MB453 cells (Homo sapiens), more than 2000 nM; on CDK2/Cyclin E1 complex, more than 500 nM; in assay [1] it was 100 to 500 nM. The IC50 (on CDK9/Cyclin T1 complex; in assay [2]) was more than 500 nM in each case.

For the compound `N#Cc1ccc2c(-c3nc(N[C@H]4CNC[C@@H]4c4ccc(Cl)cc4)ncc3C(F)(F)F)c[nH]c2c1` (relative stereo) [Compound 113], the IC50 is more than 2000 nM with HCC70 cells (Homo sapiens); more than 2000 nM in the assay on COV318 cells; 500 to 2000 nM with COV504 cells; more than 2000 nM with MB453 cells (Homo sapiens); more than 500 nM against CDK2/Cyclin E1 complex; more than 500 nM in assay [1]. Besides, the IC50 (against CDK9/Cyclin T1 complex; in assay [2]) was more than 500 nM throughout.

As to `Cc1noc(C)c1-c1ccc2c(-c3nc(NC4CC[C@@H]4N4CCCC4)ncc3C(F)(F)F)c[nH]c2n1` (stereo in doubt) [Compound 149, 4-[6-(3,5-dimethylisoxazol-4-yl)-1H-pyrrolo[2,3-b]pyridin-3-yl]-N-(2-pyrrolidin-1-ylcyclobutyl)-5-(trifluoromethyl) pyrimidin-2-amine], the IC50 with HCC70 cells (Homo sapiens) is less than 100 nM; in the assay with COV318 cells, more than 2000 nM; with COV504 cells, less than 100 nM; in the assay on MB453 cells (Homo sapiens), less than 100 nM; on CDK2/Cyclin E1 complex, more than 500 nM; in assay [1], less than 30 nM. In addition, the IC50 (on CDK9/Cyclin T1 complex; in assay [2]) was more than 500 nM throughout.

On to `COCCNC1CCC[C@@H]1Nc1ncc(C(F)(F)F)c(-c2c[nH]c3nc(-c4c(C)noc4C)ccc23)n1` (stereo in doubt) [Compound 152, (1S, 2R)—N1-[4-[6-(3,5-dimethylisoxazol-4-yl)-1H-pyrrolo [2,3-b]pyridin-3-yl]-5-(trifluoromethyl)pyrimidin-2-yl]-N2-(2-methoxyethyl)cyclopentane-1,2-diamine], for which the IC50 was 100 to 500 nM in the assay with HCC70 cells (Homo sapiens); 500 to 2000 nM with COV318 cells; 100 to 500 nM with COV504 cells; 100 to 500 nM in the assay with MB453 cells (Homo sapiens); more than 500 nM against CDK2/Cyclin E1 complex; less than 30 nM in assay [1]. The IC50 (against CDK9/Cyclin T1 complex; in assay [2]) was more than 500 nM each time.

As for `N#Cc1ccc2c(-c3nc(N[C@H]4CCCC[C@@H]4N)ncc3C(F)(F)F)c[nH]c2c1` [Compound 100], the IC50 with HCC70 cells (Homo sapiens) is more than 2000 nM; in the assay on COV318 cells, more than 2000 nM; with COV504 cells, more than 2000 nM; in the assay with MB453 cells (Homo sapiens) it was 500 to 2000 nM; at CDK2/Cyclin E1 complex it was more than 500 nM; in assay [1], more than 500 nM. Further, the IC50 (at CDK9/Cyclin T1 complex; in assay [2]) was more than 500 nM each time.

As for `N#Cc1ccc2c(-c3nc(N[C@H]4CCC[C@@H]4N)ncc3C(F)(F)F)c[nH]c2c1` [Compound 101], the IC50 in the assay on HCC70 cells (Homo sapiens) was 100 to 500 nM; in the assay on COV318 cells it was 100 to 500 nM; in the assay with COV504 cells it was 100 to 500 nM; in the assay on MB453 cells (Homo sapiens), 100 to 500 nM; on CDK2/Cyclin E1 complex, more than 500 nM; in assay [1], less than 30 nM. For the same compound, the IC50 (against CDK9/Cyclin T1 complex; in assay [2]) was more than 500 nM throughout.

For `N#Cc1ccc2c(-c3nc(NC[C@@H]4COCCN4)ncc3C(F)(F)F)c[nH]c2c1` [Compound 102], the IC50 was more than 2000 nM in the assay on HCC70 cells (Homo sapiens); more than 2000 nM with COV318 cells; more than 2000 nM with COV504 cells; more than 2000 nM in the assay with MB453 cells (Homo sapiens); more than 500 nM against CDK2/Cyclin E1 complex; more than 500 nM in assay [1]. The IC50 (against CDK9/Cyclin T1 complex; in assay [2]) was more than 500 nM each time.

Regarding `N#Cc1ccc2c(-c3nc(N[C@H]4CC[C@@H]4N)ncc3C(F)(F)F)c[nH]c2c1` [Compound 103], the IC50 in the assay with HCC70 cells (Homo sapiens) was 100 to 500 nM; with COV318 cells it was 100 to 500 nM; in the assay on COV504 cells, 100 to 500 nM; in the assay on MB453 cells (Homo sapiens), 100 to 500 nM; at CDK2/Cyclin E1 complex, more than 500 nM; in assay [1] it was less than 30 nM. Also, the IC50 (at CDK9/Cyclin T1 complex; in assay [2]) was more than 500 nM each time.

As to `COCCN[C@@H]1CC[C@H]1Nc1ncc(C(F)(F)F)c(-c2c[nH]c3cc(C#N)ccc23)n1` [Compound 134], the IC50 (against CDK2/Cyclin E1 complex; in assay [1]; against CDK9/Cyclin T1 complex; in assay [2]) was more than 500 nM each time.

Consider `N#Cc1ccc2c(-c3nc(N[C@@H]4CC[C@H]4N4CCCC4)ncc3C(F)(F)F)c[nH]c2c1` [Compound 136, 3-[2-[[(1R,2R)-2-pyrrolidin-1-ylcyclobutyl]-amino]-5-(trifluoromethyl)pyrimidin-4-yl]-1H-indole-6-carbonitrile], for which the IC50 was more than 500 nM against CDK2/Cyclin E1 complex, 100 to 500 nM in assay [1], more than 500 nM at CDK9/Cyclin T1 complex and more than 500 nM in assay [2].

Turning to `Cc1noc(C)c1-c1ccc2c(-c3nc(N[C@@H]4C[C@H]5CC[C@@H]4N5)ncc3C(F)(F)F)c[nH]c2c1` [Compound 138, (1R,2R,4S)—N-[4-[6-(3,5-dimethylisoxazol-4-yl)-1H-indol-3-yl]-5-(trifluoromethyl)pyrimidin-2-yl]-7-azabicyclo-[2.2.1]-heptan-3-amine], the IC50 was 100 to 500 nM with HCC70 cells; 100 to 500 nM with MB453 cells; more than 500 nM at CDK2/Cyclin E1 complex (read-out: CDK 2 calculated IC50, ATP 2 mM, 27° C., 35 min incubation, 2 mM MgCl2); 30 to 100 nM in assay [1] (read-out: CDK 7 calculated IC50, ATP 2 mM, 27° C., 35 min incubation, 6 mM MgCl2); more than 500 nM at CDK9/Cyclin T1 complex (read-out: CDK 9 calculated IC50, ATP 2 mM, 27° C., 15 min incubation, 10 mM MgCl2); more than 500 nM in assay [2] (read-out: CDK 12 calculated IC50, ATP 2 mM, 27° C., 3 hr incubation, 2 mM MgCl2).

Regarding `COC1CCN([C@H]2CCC[C@@H]2Nc2ncc(C(F)(F)F)c(-c3c[nH]c4nc(-c5c(C)noc5C)ccc34)n2)C1` (stereo partly shown) [Compound 153], the IC50 with HCC70 cells (Homo sapiens) was 100 to 500 nM; in the assay with COV318 cells it was more than 2000 nM; in the assay with COV504 cells it was 100 to 500 nM; in the assay on MB453 cells (Homo sapiens) it was 500 to 2000 nM.

As to `CP(C)(=O)c1c(C(N)=O)ccc2c(-c3nc(N[C@H]4CCC[C@@H]4N)ncc3C(F)(F)F)c[nH]c12` [Compound 162, 3-[2-[[(1S,2S)-2-aminocyclopentyl]amino]-5(trifluoromethyl)pyrimidin-4-yl]-7-dimethylphosphoryl-1H-indole-6-carboxamide], the IC50 against CDK2/Cyclin E1 complex was more than 500 nM; in assay [1] it was less than 30 nM; at CDK9/Cyclin T1 complex, more than 500 nM.
